Structures are written as SMILES. Like-named read-outs stand apart in the source and are kept apart here.

In general, IC50 refers to the concentration needed to halve the response being measured. Low values mean inhibition by little substance, high ones a need for much substance.

Data set [1] concerns A549 (epithelial lung adenocarcinoma cells). Description: MTT cytotoxicity assay. The class given is cell-based, human. Particulars: A549, 48 h. The procedure:
(§1) Cell culture. Epithelial ovarian carcinoma cells (A2780) that acquired resistance to cisplatin epithelial ovarian carcinoma cells (A2780cis), colon adenocarcinoma cells (SW480) and epithelial lung adenocarcinoma cells (A549) were provided by Sigma Aldrich. A549 and SW480 cells were grown in Dulbecco′s Modified Eagle′s Medium (DMEM), supplemented with 10% Fetal Bovine Serum (FBS) and 1% penicillin, streptomycin and 1% glutamine for A549 and 1% amphotericin B for SW480. The A2780 and A2780cis were grown in RPMI 1640 supplemented with 10% Fetal Bovine Serum (FBS), 1% glutamine and 1% penicillin, streptomycin and amphotericin B. All cells were incubated in a humidified incubator at 37 °C under a 5% CO2 atmosphere and grown in 100 mm culture dishes to approximately 70–80% confluence. For subculturing, cells were detached with Trypsin-EDTA (Sigma). A549-gal were derived from A549 cultured in glucose-free medium supplemented with 10 mM galactose (Sigma) for at least 10 passes.
(§2) Cytotoxicity. MTT Assay and IC50 estimation. The cytotoxicity of 1[C,NH-Cl], 2[C,NMe-Cl], 3[N,NH-Cl]Cl, 4[N,NMe-Cl]Cl, 5[CNH2,NH-Cl]Cl, 6[CNH2,S-Cl]Cl, 7[CO,NH-Cl] and 8[CO,S-Cl] in A2780, A2780cis, SW480 and A549 carcinoma cells was evaluated by the MTT colorimetric assay. Cells were seeded in 96-well plates at 5000 cells per well and incubated at 37 °C, 5% CO2. After 24 h, the medium was removed and replaced with fresh medium with different concentrations of the compounds under study, and they were incubated for 48 h. Final DMSO concentration was kept below 0.7% in wells. For a negative control, one sequence of cells was left untreated and for vehicle control, cells treated with DMSO were included. For cell viability experiments preincubating with NAC (N-Acetyl-L-Cysteine), the cells were pre-treated with NAC, 10 mM for 2 h before the incubation with complex 1[C,NH-Cl] for 24 h. Then, the medium was removed from the wells, and 100 µL MTT (5 mg/mL) was added. After an incubation time of 4 h, 100 μL of solubilizing detergent solution (SDS, 10% in HCL 0.01 M) was added and kept in the incubator overnight. Cell growth inhibition was detected by measuring the absorbance of each well at 595 nm using a BioTek Cytation5 microplate reader. Each test was repeated in quadruplicate in three independent experiments for each cell line. The percentage of survival cells was calculated using absorbance measurements compared with control and the IC50 estimation using Graph Pad Prism version 6.01.
On the technique in general: Tetrazolium dyes change colour on reduction, which living cells bring about.

The test system of data set [2] is A2780 (epithelial ovarian carcinoma cells). Description: MTT cytotoxicity assay. Format: cell-based, human. Particulars: A2780, 48 h. The protocol: as §1, §2
For data set [3], the system named is SW480 (colon adenocarcinoma cells). Kind of data set: MTT cytotoxicity assay. Particulars: SW480, 48 h. The class given is cell-based, human. The protocol:
as §1, §2

The test system of data set [4] is A2780cis (ovarian, acquired resistance to cisplatin). Kind of data set: MTT cytotoxicity assay. Particulars: A2780cis, 48 h. Format: cell-based, human. The protocol:
as §1, §2

A short description of data set [5]: Acid dissociation constants from absorbance vs pH. Particulars: for pKa2: NH dissociation to give the N anion; for pKa1: water dissociation to give the hydroxo complex; for pKa: free ligand. The class given is physicochemical. The protocol: The pH measurements were carried out with a Metrohm 16 DMS Titrino pH meter fitted out with a combined glass electrode with a 3 M KCl solution as a liquid junction. HClO4 and NaOH solution were used to adjust the pH.
(§3) The UV-vis measurements were performed with a Hewlett-Packard 8453A (Agilent Technologies, Palo Alto, CA, USA) photodiode array spectrophotometer with a Peltier temperature control system. Titrations were carried out at 25 °C by adding increasing amounts of DNA solution to the iridium complex solution. The pKa values were measured by analysing the absorbance change of iridium complex solutions recorded at different pH values. The melting experiments were carried out using a DNA solution varying the CIr-complex/CDNA (CD/CP) ratio from 0 to 1, keeping CP constant and recording the absorbance spectra while heating from 25 to 90 °C at 0.3 °C/min.

The nature of data set [6]: Aquation/solvolysis kinetics (UV-vis). The class given is physicochemical. The procedure: Aquation/solvolysis. Chloride displacement was qualitatively monitored by ^1H-NMR for some of the complexes in DMSO-d6. The replacement of the chloride by a DMSO molecule was observed as some peaks shifted and some new peaks appeared corresponding to the methyl groups of the DMSO molecule. Aquation/solvolysis equilibria were studied by kinetic UV-vis measurements.
as §3
The slow kinetic measurements were performed with the previous spectrophotometer while the fast kinetic measurements were performed in a stopped flow Bio-Logic SFM-300 spectrophotometer with an absorbance detection system and dead time below 3 ms. The kinetic curves, obtained averaging out at least five shots, were analysed with the Jandel (AISN software, Mapleton, OR) fitting package.

Another data set in a line: Qualitative solubility. Format: physicochemical. Particulars: 1-2 mg, solvent up to 1 mL. The protocol:
Solubility. The solubility of the complexes was qualitatively assessed. Different solvents were added drop-by-drop while shaking to a small amount of complex (around 1–2 mg) in a vial until the solvent added exceeded 1 mL. Afterwards, it was checked if the solid was or not completely dissolved and/or if the solution got coloured.

Take `N.N.[Cl][Pt][Cl]` [cisPt, cisplatin, reference compound]: the IC50 was found to be 33 ± 6 µM in data set [1], 7 ± 1 µM in data set [2], 34 ± 1 µM in data set [3] and 60 ± 1 µM in data set [4]. In data set [5], `Cc1c(C)c(C)[c-](C)c1C.[OH2+][Ir]1[NH2+]c2ccccc2-c2[nH]c3ccccc3[n+]21` [5[CNH2,NH-H2O]2+] had a pKa2 of 11.30 ± 0.17 and a pKa1 of 7.48 ± 0.04. As to `Cc1c(C)c(C)[c-](C)c1C.[OH2+][Ir]1[NH2+]c2ccccc2-c2sc3ccccc3[n+]21` [6[CNH2,S-H2O]2+], the pKa1 in data set [5] is given as 8.70 ± 0.04. In data set [6] (aqueous solution), the “kaq (Cl-complex to H2O-complex)” value is “(2.12 ± 0.01) × 10^−4 s-1”. Consider `Cc1c(C)c(C)[c-](C)c1C.Cn1c2[n+](c3ccccc31)[Ir]([OH2+])[n+]1ccccc1-2` [4[N,NMe-H2O]2+], for which the pKa1 in data set [5] is reported as 7.48 ± 0.01.

Regarding `C[S+](C)(=O)[Ir]1[c]2ccccc2-c2[nH]c3ccccc3[n+]21.Cc1c(C)c(C)[c-](C)c1C.[Cl-]` [1[C,NH-DMSO]+, [(η^5-Cp*)Ir(DMSO)(κ^2-N,C-pbim)]Cl], the pKa2 in data set [5] is on record as 8.44 ± 0.03. Besides, the Solubility in water result in the data set “Qualitative solubility” is “soluble in dimethyl sulfoxide and water”. Take `Cc1c(C)c(C)[c-](C)c1C.Cn1c2[n+](c3ccccc31)[Ir]([S+](C)(C)=O)[c]1ccccc1-2` [2[C,NMe-DMSO]+]: in data set [5] (absorbance vs pH), the Acid-base equilibrium entry is reported as “did not exhibit any acid–base equilibrium”. Consider `C[S+](C)(=O)[Ir]1[O]c2ccccc2-c2[nH]c3ccccc3[n+]21.Cc1c(C)c(C)[c-](C)c1C` [7[CO,NH-DMSO]+], for which the pKa2 in data set [5] worked out at 9.06 ± 0.06. On to `C[S+](C)(=O)[Ir]1[O]c2ccccc2-c2sc3ccccc3[n+]21.Cc1c(C)c(C)[c-](C)c1C` [8[CO,S-DMSO]+], for which, in data set [6] (in DMSO), the “kDMSO (Cl-complex to DMSO-complex)” value is “(3.11 ± 0.25) × 10^−4 s-1”.

For `c1ccc(-c2nc3ccccc3[nH]2)cc1` [2-phenylbenzimidazole], the pKa in data set [5] (deprotonation of the pyridine type N atom, read-out: pKa1) is 5.2 ± 0.1; in data set [5] (pyrrole type N atom, read-out: pKa2), 11.8 ± 0.1. Regarding `Cc1c(C)c(C)[c-](C)c1C.[OH2+][Ir]1[n+]2ccccc2-c2[nH]c3ccccc3[n+]21` [3[N,NH-H2O]2+], in data set [5], the pKa2 is given as 8.44 ± 0.06 and the pKa1 worked out at 6.08 ± 0.04.

For the origin of these results see PMC9818021, “Targets, Mechanisms and Cytotoxicity of Half-Sandwich Ir(III) Complexes Are Modulated by Structural Modifications on the Benzazole Ancillary Ligand” (Cancers, 2022).
